This is an account of results in PubChem BioAssay (NCI).

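In this assay, cells in 96-well plates receive the compound at five concentrations for 48 hours. Endpoints are linearly interpolated between the surrounding concentrations. GI50 is the concentration that inhibits growth by half. At the TGI there is no net growth.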

Some test systems named below: HL-60(TB) leukemia; HT29 colon; IGROV1 ovarian; MCF7 breast; NCI-H460 lung; NCI/ADR-RES ovarian; OVCAR-4 ovarian; SW-620 colon; T-47D breast; UACC-62 melanoma.
What all share (experiment): growth of human tumour cells (NCI), 48 h

Regarding `CN1CCCCC1CCN1c2ccccc2Sc2ccc(Br)cc21` (stereo not drawn), the GI50 is 2.06 µM in the experiment with HL-60(TB) leukemia; 2.51 µM with HT29 colon; 2.37 µM with IGROV1 ovarian; 2.06 µM in the experiment with MCF7 breast; 2.29 µM in the experiment with NCI-H460 lung; 1.98 µM with NCI/ADR-RES ovarian. In addition, the GI50 is 3.6 µM with OVCAR-4 ovarian, 2.08 µM in the experiment on SW-620 colon, 3.61 µM in the experiment on T-47D breast and 1.83 µM in the experiment with UACC-62 melanoma. Besides, the TGI in the experiment on HL-60(TB) leukemia was 4.65 µM; in the experiment on HT29 colon, 6.92 µM; with IGROV1 ovarian, 6.37 µM; with MCF7 breast, 4.27 µM; in the experiment on NCI-H460 lung, 5.01 µM; in the experiment on NCI/ADR-RES ovarian, 4.13 µM. Further, the TGI with OVCAR-4 ovarian is 13.6 µM; with SW-620 colon, 5.04 µM; in the experiment on T-47D breast it was 14.4 µM; in the experiment with UACC-62 melanoma it was 4.1 µM.
With `N=C(N)c1ccc2oc3ccc(C(=N)N)cc3c(=O)c2c1`, the TGI with HL-60(TB) leukemia, in the experiment with HT29 colon, in the experiment on IGROV1 ovarian, in the experiment on MCF7 breast, in the experiment on NCI-H460 lung and in the experiment on NCI/ADR-RES ovarian was above 100 µM in each case. Moreover, the TGI in the experiment with OVCAR-4 ovarian, in the experiment with SW-620 colon, with T-47D breast and in the experiment on UACC-62 melanoma was above 100 µM throughout.
Consider `CC(C)(Oc1ccc(-c2cccc3ccccc23)cc1)C(=O)O`, for which the TGI in the experiment on HL-60(TB) leukemia is 30.1 µM; in the experiment on HT29 colon, above 100 µM; in the experiment on IGROV1 ovarian, above 100 µM; in the experiment with MCF7 breast it was above 100 µM; in the experiment on NCI-H460 lung, above 100 µM; in the experiment with NCI/ADR-RES ovarian, above 100 µM. Besides, the TGI in the experiment on OVCAR-4 ovarian, in the experiment on SW-620 colon, in the experiment with T-47D breast and in the experiment on UACC-62 melanoma was above 100 µM in each case.
In the case of `O=C(Nc1ccn(C2CC(O)C(COC(c3ccccc3)(c3ccccc3)c3ccccc3)O2)c(=O)n1)c1ccccc1` (stereo not drawn), the TGI in the experiment on HL-60(TB) leukemia worked out at 5.52 µM; with HT29 colon, 3.22 µM; with IGROV1 ovarian it was 6.12 µM; in the experiment with MCF7 breast, 8.39 µM; in the experiment on NCI-H460 lung, 4.31 µM; in the experiment on NCI/ADR-RES ovarian, 5.25 µM. Further, the TGI in the experiment on OVCAR-4 ovarian turned out to be 7.88 µM; with SW-620 colon it was 5.46 µM; in the experiment on T-47D breast, 16.7 µM; in the experiment with UACC-62 melanoma, 20 µM.
`[Br][Pb]([c]1ccccc1)([c]1ccccc1)[c]1ccccc1`: the GI50 with HL-60(TB) leukemia was 0.19 µM; with HT29 colon, 0.239 µM; in the experiment with MCF7 breast, 0.159 µM; in the experiment on NCI-H460 lung, 0.292 µM; with NCI/ADR-RES ovarian, 0.229 µM; with SW-620 colon it was 0.163 µM. Further, the figures for the GI50 in the experiment with T-47D breast and with UACC-62 melanoma were 0.143 µM and 0.186 µM, respectively. The TGI with HL-60(TB) leukemia was determined as 0.498 µM; with HT29 colon it was 0.508 µM; in the experiment on MCF7 breast, 0.303 µM; in the experiment with NCI-H460 lung, 0.895 µM; in the experiment with NCI/ADR-RES ovarian, 0.561 µM; in the experiment with SW-620 colon, 0.3 µM. Also, the TGI with T-47D breast was 0.318 µM; in the experiment on UACC-62 melanoma, 0.428 µM.
With `CC(C)=C[C@@H]1C[C@H](C)[C@H]2CC[C@H](C)c3c(O)c(OC4OC(C)C(O)C(O)C4O)c(C)c1c32` (stereo partly drawn), the GI50 with HL-60(TB) leukemia is 10.4 µM; in the experiment with HT29 colon, 4.07 µM; in the experiment on IGROV1 ovarian it was 13.7 µM; in the experiment on MCF7 breast, 13.9 µM; in the experiment on NCI-H460 lung, 7.83 µM; in the experiment on NCI/ADR-RES ovarian, 0.648 µM. The results for the GI50 in the experiment with OVCAR-4 ovarian, in the experiment with SW-620 colon and in the experiment on T-47D breast were 12.1 µM, 4.66 µM and 12.5 µM, respectively. The TGI in the experiment with HL-60(TB) leukemia worked out at 25.7 µM; with HT29 colon it was 15.6 µM; in the experiment with IGROV1 ovarian it was 26.8 µM; with MCF7 breast, 27.7 µM; with NCI-H460 lung, 21.2 µM; in the experiment on NCI/ADR-RES ovarian, 16.8 µM. Also, the TGI turned out to be 24.7 µM with OVCAR-4 ovarian, 16.3 µM in the experiment on SW-620 colon and 26.5 µM with T-47D breast.
Regarding `CCCCCCCCCCCC/C=C\CC[C@@H](O)[C@H](O)CC[C@H](O)[C@@H]1CC[C@@H](CCCCCCCC2=C[C@H](C)OC2=O)O1`, the TGI came out at 6.56 µM in the experiment on HL-60(TB) leukemia; 28.1 µM in the experiment on IGROV1 ovarian; 34.6 µM with MCF7 breast; 26.6 µM in the experiment on NCI-H460 lung; 27.8 µM with NCI/ADR-RES ovarian; 26.8 µM with OVCAR-4 ovarian. Also, the TGI in the experiment on SW-620 colon is above 100 µM; with T-47D breast it was 21.5 µM; with UACC-62 melanoma, 6.45 µM. In addition, the GI50 in the experiment with IGROV1 ovarian was 7.09 µM; in the experiment with MCF7 breast, 4.76 µM; with NCI/ADR-RES ovarian it was 7.19 µM; in the experiment with SW-620 colon, 23.4 µM; with T-47D breast, 2.85 µM.
